Source: patent US20120010206A1, “IMIDAZOLOPYRIDINE COMPOUNDS USEFUL FOR THE TREATMENT OF DEGENERATIVE AND INFLAMMATORY DISEASES” (priority 2006, published 2012)

Key:
[1] = test system: MMP1 expression from activated SFs (RASF); assay: MMP assay: MMP1 expression (ELISA) by TNF-α-triggered RASFs; assay type: cell-based; conditions: RASF triggered with TNFα, MMP1 ELISA after 48 hrs, semi-quantitative score
Outline: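 Rheumatoid arthritis synovial fibroblasts (passage 10–12) were preincubated 90 min with compound in M199 with 1% FBS, then stimulated with TNF-α (10 ng/mL final) or complex trigger (12.5% final) for 48 h. MMP1 in the supernatant was quantified by sandwich luminescence ELISA. Controls were stimulated cells with 0.2% DMSO vehicle and unstimulated cells.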

TAK1-TAB1 fusion protein = molecular target: T1, TAK1-TAB1 fusion protein (Homo sapiens, UniProt O43318); assay: In vitro TAK1 kinase assay (33P-ATP, casein substrate); assay type: biochemical; conditions: semi-quantitative score, at least two independent experiments
T1 construct: purchased Upstate 14-600
T1 sequence (O43318 with tags, fused parts or gaps limits assumed): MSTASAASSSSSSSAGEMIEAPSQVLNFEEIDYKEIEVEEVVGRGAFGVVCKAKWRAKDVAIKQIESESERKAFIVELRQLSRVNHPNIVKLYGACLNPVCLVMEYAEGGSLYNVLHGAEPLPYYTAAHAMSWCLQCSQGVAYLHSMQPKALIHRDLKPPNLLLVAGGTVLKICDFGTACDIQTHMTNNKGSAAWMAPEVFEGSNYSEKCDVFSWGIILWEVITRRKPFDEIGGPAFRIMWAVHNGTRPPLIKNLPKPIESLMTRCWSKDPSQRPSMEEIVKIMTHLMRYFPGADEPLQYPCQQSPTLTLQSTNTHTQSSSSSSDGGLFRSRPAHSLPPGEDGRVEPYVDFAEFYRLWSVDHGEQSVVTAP
Outline: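 Radiometric assay with active TAK1-TAB1 fusion protein (0.5 mU), 0.1 mg/mL casein, ATP at 5 µM plus [33P]-γ-ATP, in 10 mM MOPS pH 7.0, 1 mM EDTA. Reactions ran 90 min at 30 °C, were stopped with phosphoric acid and filter-counted; percent inhibition from ≥2 experiments gave semi-quantitative potency scores.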

Row | Compound | EC50 [1] | IC50 (TAK1-TAB1 fusion protein)
1 | O=C1NCc2cc(-c3ccc(Nc4ccc(S(=O)(=O)N5CCOCC5)cc4)c4nccn34)ccc21 [Compound 16, 5-(8-(4-(morpholinosulfonyl)phenylamino)imidazo[1,2-a]pyridin-5-yl)isoindolin-1-one] | > 3000 nM | 101 to 1000 nM
2 | CCN(C)CCN(CC)C(=O)c1ccc(Nc2ccc(-c3ccc4c(c3)CNC4=O)n3ccnc23)cc1 [Compound 47, N-ethyl-N-(2-(ethyl(methyl)amino)ethyl)-4-(5-(1-oxoisoindolin-5-yl)imidazo[1,2-a]pyridin-8-ylamino)benzamide] | > 3000 nM | < 100 nM
3 | Cc1n[nH]c(C)c1-c1ccc(Nc2ccc(N3CCOCC3)cc2)c2nccn12 [Compound 92] | > 3000 nM | > 3000 nM
4 | O=C1NCc2cc(-c3ccc(Nc4ccc(S(=O)(=O)c5ccccc5)cc4)c4nccn34)ccc21 [Compound 21, 5-(8-(4-(phenylsulfonyl)phenylamino)imi-dazo[1,2-a]pyridin-5-yl)isoindolin-1-one] | 101 to 1000 nM | 101 to 1000 nM
5 | NC(=O)c1ccc(-c2ccc(Nc3ccc(N4CCOCC4)c(F)c3)c3nccn23)cc1F [Compound 67] | 101 to 1000 nM | > 3000 nM
6 | O=C1NCc2cc(-c3ccc(Nc4ccc(C(=O)N5CCOCC5)cc4)c4nccn34)ccc21 [Compound 15, 5-(8-(4-(morpholine-4-carbonyl)phenyl-amino)imidazo[1,2-a]pyridin-5-yl)isoindolin-1-one] | > 3000 nM | 101 to 1000 nM
7 | CN(C)C1CCN(C(=O)c2ccc(Nc3ccc(-c4ccc5c(c4)CNC5=O)n4ccnc34)cc2)C1 (stereo not shown) [Compound 39, 5-(8-(4-(3-(dimethylamino)pyrrolidine-1-carbonyl)phenyl-amino)imidazo[1,2-a]pyridin-5-yl)isoindolin-1-one] | > 3000 nM | < 100 nM
8 | CCN(CC)CCNC(=O)c1ccc(Nc2ccc(-c3ccc4c(c3)CNC4=O)n3ccnc23)cc1 [Compound 23, N-(2-(diethylamino)ethyl)-4-(5-(1-oxoisoindolin-5-yl)imidazo[1,2-a]pyridin-8-ylamino) benzamide] | > 3000 nM | < 100 nM
9 | CS(=O)(=O)c1ccc(Nc2ccc(-c3cn[nH]c3)n3ccnc23)cc1 [Compound 71] | 1000 to 3000 nM | 101 to 1000 nM
10 | O=C(NCCCN1CCCC1)c1ccc(Nc2ccc(-c3ccc4c(c3)CNC4=O)n3ccnc23)cc1 [Compound 51, 4-(5-(1-oxoisoindolin-5-yl)imidazo[1,2-a]pyridin-8-ylamino)-N-(3-(pyrrolidin-1-yl)propyl)benzamide] | > 3000 nM | 101 to 1000 nM
11 | CN(C)CCNC(=O)c1ccc(Nc2ccc(-c3ccc4c(c3)CNC4=O)n3ccnc23)cc1 [Compound 36, N-(2-(dimethylamino)ethyl)-4-(5-(1-oxoisoindolin-5-yl)imidazo[1,2-a]pyridin-8-ylamino)benzamide] | > 3000 nM | 101 to 1000 nM

Continued, values first:

Row | EC50 [1] | IC50 (TAK1-TAB1 fusion protein) | Compound
12 | > 3000 nM | 101 to 1000 nM | CCC(CC)N1CCN(c2ccc(Nc3ccc(-c4ccc(C(N)=O)cc4)n4ccnc34)cc2)CC1 [Compound 80]
13 | > 3000 nM | < 100 nM | CCN1CCN(C(=O)c2ccc(Nc3ccc(-c4ccc5c(c4)CNC5=O)n4ccnc34)cc2)CC1 [Compound 53, 5-(8-(4-(4-ethylpiperazine-1-carbonyl)phenylamino)imidazo [1,2-a]pyridin-5-yl)isoindolin-1-one]
14 | 101 to 1000 nM | 101 to 1000 nM | CN1CCN(c2ccc(Nc3ccc(-c4cn[nH]c4)n4ccnc34)c(F)c2)CC1 [Compound 7, [2-Fluoro-4-(4-methyl-piperazin-1-yl)-phenyl]-[5-(1H-pyrazol-4-yl)-imidazo[1,2-a]pyridin-8-yl]amine]
15 | > 3000 nM | 101 to 1000 nM | CC(C)CCN1CCN(c2ccc(Nc3ccc(-c4ccc(C(N)=O)cc4)n4ccnc34)cc2)CC1 [Compound 79]
16 | < 100 nM | 101 to 1000 nM | CN1CCN(c2ccc(Nc3ccc(-c4ccc(C(N)=O)cc4)n4ccnc34)cc2)CC1 [Compound 3, 4-{8-[4-(4-Methyl-piperazin-1-yl)-phenylamino]-imidazo[1,2-a]pyridin-5-yl}-benzamide]
17 | 101 to 1000 nM | 1000 to 3000 nM | FC(F)CN1CCN(c2ccc(Nc3ccc(-c4cn[nH]c4)n4ccnc34)cc2)CC1 [Compound 109, {4-[4-(2,2-Difluoro-ethyl)-piperazin-1-yl]-phenyl}-[5-(1H-pyrazol-4-yl)-imidazo[1,2-a]pyridin-8-yl]-amine]
18 | 101 to 1000 nM | 101 to 1000 nM | CC(C)N1CCN(c2ccc(Nc3ccc(-c4csc(C(N)=O)c4)n4ccnc34)cc2)CC1 [Compound 8, 4-{8-[4-(4-Isopropyl-piperazin-1-yl)-phenylamino]-imidazo[1,2-a]pyridin-5-yl}-thiophene-2-carboxylic acid amide]
19 | > 3000 nM | 101 to 1000 nM | COc1cc(-c2ccc(Nc3ccc(N4CCN(C(C)C)CC4)cc3)c3nccn23)ccc1O [Compound 95]
20 | 1000 to 3000 nM | 101 to 1000 nM | NC(=O)c1ccc(-c2ccc(Nc3ccc(N4CCN(C5CCCCC5)CC4)cc3)c3nccn23)cc1 [Compound 77]
21 | > 3000 nM | < 100 nM | CC(C)N1CCN(C(=O)c2ccc(Nc3ccc(-c4ccc5c(c4)CNC5=O)n4ccnc34)cc2)CC1 [Compound 48, 5-(8-(4-(4-isopropylpiperazine-1-carbonyl)phenylamino)imidazo [1,2-a]pyridin-5-yl)isoindolin-1-one]
22 | > 3000 nM | 101 to 1000 nM | CCC(CC)N1CCN(c2ccc(Nc3ccc(-c4cn[nH]c4)n4ccnc34)cc2)CC1 [Compound 89]
23 | > 3000 nM | 101 to 1000 nM | CC(C)N1CCN(c2ccc(Nc3ccc(-c4ccc(C(N)=O)cc4)n4ccnc34)cc2F)CC1 [Compound 11, 4-{8-[3-Fluoro-4-(4-isopropyl-piperazin-1-yl)-phenylamino]-imidazo[1,2-a]pyridin-5-yl}-benzamide]
